# Experimental data: paper PMC4823954, “From fighting depression to conquering tumors: a novel tricyclic thiazepine compound as a tubulin polymerization inhibitor” (Cell Death & Disease, 2016)
# Experiments:
# Assay in all cases: KINOMEscan
# Assay type in all cases: binding
# Conditions in all cases: read-out: % Ctrl
# [1] = target: T1, CDKL2 (Homo sapiens, UniProt Q92772)
# T1 construct: purchased DiscoveRx KINOMEscan
# Method in brief: (§1)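 Competition binding panel of 442 non-mutant kinases: test compound at 5 and 10 μM competed with an active-site-directed ligand for 1 h with shaking. Bound kinase was eluted with 0.5 μM ligand and quantified by qPCR; %Ctrl = (compound − positive control)/(DMSO − positive control) × 100, lower meaning tighter binding.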
# [2] = target: T2, GSK3A (Homo sapiens, UniProt P49840)
# T2 construct: purchased DiscoveRx KINOMEscan
# Method in brief: as §1
# [3] = target: T3, LATS2 (Homo sapiens, UniProt Q9NRM7)
# T3 construct: purchased DiscoveRx KINOMEscan
# Method in brief: as §1
# [4] = target: T4, MYO3A (Homo sapiens, UniProt Q8NEV4)
# T4 construct: purchased DiscoveRx KINOMEscan
# Method in brief: as §1
# [5] = target: T5, RSK1(Kin.Dom.1-N-terminal) (Homo sapiens, UniProt Q15418)
# T5 construct: RSK1(Kin.Dom.1-N-terminal); purchased DiscoveRx KINOMEscan
# Method in brief: as §1
# [6] = target: T6, LIMK1 (Homo sapiens, UniProt P53667)
# T6 construct: purchased DiscoveRx KINOMEscan
# Method in brief: as §1
# [7] = target: T7, PKMYT1 (Homo sapiens, UniProt Q99640)
# T7 construct: purchased DiscoveRx KINOMEscan
# Method in brief: as §1
# [8] = target: T8, MST2 (Homo sapiens, UniProt Q13188)
# T8 construct: purchased DiscoveRx KINOMEscan
# Method in brief: as §1
# [9] = target: T9, IRAK1 (Homo sapiens, UniProt P51617)
# T9 construct: purchased DiscoveRx KINOMEscan
# Method in brief: as §1
# [10] = target: T10, TRPM6 (Homo sapiens, UniProt Q9BX84)
# T10 construct: purchased DiscoveRx KINOMEscan
# Method in brief: as §1
# [11] = target: T11, EPHB2 (Homo sapiens, UniProt P29323)
# T11 construct: purchased DiscoveRx KINOMEscan
# Method in brief: as §1
# [12] = target: T12, EPHA6 (Homo sapiens, UniProt Q9UF33)
# T12 construct: purchased DiscoveRx KINOMEscan
# Method in brief: as §1
# [13] = target: T13, PFPK5(P.falciparum) (Plasmodium falciparum, UniProt P61075)
# T13 construct: purchased DiscoveRx KINOMEscan
# Method in brief: as §1
# [14] = target: T14, LZK (Homo sapiens, UniProt O43283)
# T14 construct: purchased DiscoveRx KINOMEscan
# Method in brief: as §1
# [15] = target: T15, CDK5 (Homo sapiens, UniProt Q00535)
# T15 construct: purchased DiscoveRx KINOMEscan
# Method in brief: as §1
# [16] = target: T16, HIPK1 (Homo sapiens, UniProt Q86Z02)
# T16 construct: purchased DiscoveRx KINOMEscan
# Method in brief: as §1
# [17] = target: T17, CSNK2A1 (Homo sapiens, UniProt P68400)
# T17 construct: purchased DiscoveRx KINOMEscan
# Method in brief: as §1
# [18] = target: T18, CDKL1 (Homo sapiens, UniProt Q00532)
# T18 construct: purchased DiscoveRx KINOMEscan
# Method in brief: as §1
# [19] = target: T19, MUSK (Homo sapiens, UniProt O15146)
# T19 construct: purchased DiscoveRx KINOMEscan
# Method in brief: as §1
# [20] = target: T20, INSRR (Homo sapiens, UniProt P14616)
# T20 construct: purchased DiscoveRx KINOMEscan
# Method in brief: as §1
# [21] = target: T21, PRKG1 (Homo sapiens, UniProt Q13976)
# T21 construct: purchased DiscoveRx KINOMEscan
# Method in brief: as §1
# [22] = target: T22, CTK (Homo sapiens, UniProt P42679)
# T22 construct: purchased DiscoveRx KINOMEscan
# Method in brief: as §1
# [23] = target: T23, FLT3(N841I) (Homo sapiens, UniProt P36888, N841I)
# T23 construct: purchased DiscoveRx KINOMEscan
# [24] = target: T24, ERBB4 (Homo sapiens, UniProt Q15303)
# T24 construct: purchased DiscoveRx KINOMEscan
# Method in brief: as §1
# [25] = target: T25, SBK1 (Homo sapiens, UniProt Q52WX2)
# T25 construct: purchased DiscoveRx KINOMEscan
# Method in brief: as §1
# [26] = target: T26, TBK1 (Homo sapiens, UniProt Q9UHD2)
# T26 construct: purchased DiscoveRx KINOMEscan
# Method in brief: as §1
# [27] = target: T27, PRKX (Homo sapiens, UniProt P51817)
# T27 construct: purchased DiscoveRx KINOMEscan
# Method in brief: as §1
# [28] = target: T28, CAMK1D (Homo sapiens, UniProt Q8IU85)
# T28 construct: purchased DiscoveRx KINOMEscan
# Method in brief: as §1
# [29] = target: T29, IRAK4 (Homo sapiens, UniProt Q9NWZ3)
# T29 construct: purchased DiscoveRx KINOMEscan
# Method in brief: as §1
# [30] = target: T30, IKK-epsilon (Homo sapiens, UniProt Q14164)
# T30 construct: purchased DiscoveRx KINOMEscan
# Method in brief: as §1
# T22 sequence (P42679 whole entry): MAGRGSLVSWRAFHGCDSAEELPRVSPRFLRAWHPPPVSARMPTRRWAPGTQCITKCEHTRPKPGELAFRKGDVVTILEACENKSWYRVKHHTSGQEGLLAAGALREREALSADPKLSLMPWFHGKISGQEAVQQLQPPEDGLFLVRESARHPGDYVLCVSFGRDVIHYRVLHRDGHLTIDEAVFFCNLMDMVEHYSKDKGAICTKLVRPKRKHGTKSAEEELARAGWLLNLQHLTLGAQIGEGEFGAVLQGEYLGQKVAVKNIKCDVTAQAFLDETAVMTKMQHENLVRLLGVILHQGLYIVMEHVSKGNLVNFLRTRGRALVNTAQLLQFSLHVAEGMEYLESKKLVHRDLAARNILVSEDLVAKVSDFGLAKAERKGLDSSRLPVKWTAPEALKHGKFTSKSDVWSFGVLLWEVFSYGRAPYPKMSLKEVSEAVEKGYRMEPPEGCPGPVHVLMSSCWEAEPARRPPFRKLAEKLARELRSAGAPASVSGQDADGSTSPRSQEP
# T3 sequence (Q9NRM7 whole entry): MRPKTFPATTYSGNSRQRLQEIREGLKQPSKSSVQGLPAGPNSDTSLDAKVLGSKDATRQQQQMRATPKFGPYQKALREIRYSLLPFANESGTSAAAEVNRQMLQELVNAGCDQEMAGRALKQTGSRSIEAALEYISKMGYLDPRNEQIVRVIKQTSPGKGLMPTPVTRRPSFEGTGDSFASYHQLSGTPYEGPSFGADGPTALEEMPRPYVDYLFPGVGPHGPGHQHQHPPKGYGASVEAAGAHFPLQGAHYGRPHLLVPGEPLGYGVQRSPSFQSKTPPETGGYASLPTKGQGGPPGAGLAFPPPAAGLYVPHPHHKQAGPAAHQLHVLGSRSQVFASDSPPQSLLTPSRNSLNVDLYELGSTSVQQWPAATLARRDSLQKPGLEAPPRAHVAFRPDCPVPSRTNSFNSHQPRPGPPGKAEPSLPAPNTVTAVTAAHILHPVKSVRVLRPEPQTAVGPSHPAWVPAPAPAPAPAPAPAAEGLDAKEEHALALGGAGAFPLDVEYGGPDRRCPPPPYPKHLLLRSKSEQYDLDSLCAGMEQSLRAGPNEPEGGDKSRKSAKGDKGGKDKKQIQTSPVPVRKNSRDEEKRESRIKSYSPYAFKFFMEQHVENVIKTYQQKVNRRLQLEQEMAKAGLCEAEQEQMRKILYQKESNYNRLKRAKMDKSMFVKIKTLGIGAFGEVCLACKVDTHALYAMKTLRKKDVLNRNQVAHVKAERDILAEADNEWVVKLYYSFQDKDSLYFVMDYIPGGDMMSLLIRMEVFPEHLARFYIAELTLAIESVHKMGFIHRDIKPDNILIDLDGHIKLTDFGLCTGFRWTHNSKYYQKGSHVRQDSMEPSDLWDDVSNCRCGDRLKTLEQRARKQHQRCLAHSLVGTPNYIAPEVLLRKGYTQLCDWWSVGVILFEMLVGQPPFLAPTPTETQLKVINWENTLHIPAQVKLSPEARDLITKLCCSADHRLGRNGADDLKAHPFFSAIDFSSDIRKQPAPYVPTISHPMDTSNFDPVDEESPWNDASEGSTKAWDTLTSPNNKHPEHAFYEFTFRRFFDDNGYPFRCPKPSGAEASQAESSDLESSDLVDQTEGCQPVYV
# T26 sequence (Q9UHD2 whole entry): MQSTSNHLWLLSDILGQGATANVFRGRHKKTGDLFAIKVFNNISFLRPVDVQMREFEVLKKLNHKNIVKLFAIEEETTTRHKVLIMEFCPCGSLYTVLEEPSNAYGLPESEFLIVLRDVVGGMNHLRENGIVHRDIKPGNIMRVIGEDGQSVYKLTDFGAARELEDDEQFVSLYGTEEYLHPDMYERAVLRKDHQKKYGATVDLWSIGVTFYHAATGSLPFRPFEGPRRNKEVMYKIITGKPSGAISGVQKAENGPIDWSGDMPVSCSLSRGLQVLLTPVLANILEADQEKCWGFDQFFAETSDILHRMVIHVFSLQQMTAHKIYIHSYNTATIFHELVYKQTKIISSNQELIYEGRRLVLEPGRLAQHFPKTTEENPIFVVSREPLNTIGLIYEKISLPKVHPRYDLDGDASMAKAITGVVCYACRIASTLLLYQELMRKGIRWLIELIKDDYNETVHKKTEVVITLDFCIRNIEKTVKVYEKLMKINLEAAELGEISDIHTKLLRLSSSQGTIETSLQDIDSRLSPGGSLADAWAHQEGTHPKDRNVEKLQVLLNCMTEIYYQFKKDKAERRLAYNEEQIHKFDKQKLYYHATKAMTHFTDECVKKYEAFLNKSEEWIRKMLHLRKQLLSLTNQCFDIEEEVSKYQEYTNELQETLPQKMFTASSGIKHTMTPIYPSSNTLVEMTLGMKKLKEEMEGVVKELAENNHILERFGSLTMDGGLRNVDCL
# T5 sequence (Q15418 1-391 limits assumed): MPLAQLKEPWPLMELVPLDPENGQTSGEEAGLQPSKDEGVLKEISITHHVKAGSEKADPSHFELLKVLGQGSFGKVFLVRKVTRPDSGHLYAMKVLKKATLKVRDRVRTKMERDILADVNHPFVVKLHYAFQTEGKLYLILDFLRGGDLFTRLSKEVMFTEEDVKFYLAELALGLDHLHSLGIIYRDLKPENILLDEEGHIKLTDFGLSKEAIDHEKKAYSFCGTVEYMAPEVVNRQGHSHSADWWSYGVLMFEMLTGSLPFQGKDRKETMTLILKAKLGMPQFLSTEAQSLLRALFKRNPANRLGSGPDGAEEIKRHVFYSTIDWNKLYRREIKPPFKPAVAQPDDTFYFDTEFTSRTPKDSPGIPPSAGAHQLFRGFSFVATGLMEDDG
# T24 sequence (Q15303 26-1308): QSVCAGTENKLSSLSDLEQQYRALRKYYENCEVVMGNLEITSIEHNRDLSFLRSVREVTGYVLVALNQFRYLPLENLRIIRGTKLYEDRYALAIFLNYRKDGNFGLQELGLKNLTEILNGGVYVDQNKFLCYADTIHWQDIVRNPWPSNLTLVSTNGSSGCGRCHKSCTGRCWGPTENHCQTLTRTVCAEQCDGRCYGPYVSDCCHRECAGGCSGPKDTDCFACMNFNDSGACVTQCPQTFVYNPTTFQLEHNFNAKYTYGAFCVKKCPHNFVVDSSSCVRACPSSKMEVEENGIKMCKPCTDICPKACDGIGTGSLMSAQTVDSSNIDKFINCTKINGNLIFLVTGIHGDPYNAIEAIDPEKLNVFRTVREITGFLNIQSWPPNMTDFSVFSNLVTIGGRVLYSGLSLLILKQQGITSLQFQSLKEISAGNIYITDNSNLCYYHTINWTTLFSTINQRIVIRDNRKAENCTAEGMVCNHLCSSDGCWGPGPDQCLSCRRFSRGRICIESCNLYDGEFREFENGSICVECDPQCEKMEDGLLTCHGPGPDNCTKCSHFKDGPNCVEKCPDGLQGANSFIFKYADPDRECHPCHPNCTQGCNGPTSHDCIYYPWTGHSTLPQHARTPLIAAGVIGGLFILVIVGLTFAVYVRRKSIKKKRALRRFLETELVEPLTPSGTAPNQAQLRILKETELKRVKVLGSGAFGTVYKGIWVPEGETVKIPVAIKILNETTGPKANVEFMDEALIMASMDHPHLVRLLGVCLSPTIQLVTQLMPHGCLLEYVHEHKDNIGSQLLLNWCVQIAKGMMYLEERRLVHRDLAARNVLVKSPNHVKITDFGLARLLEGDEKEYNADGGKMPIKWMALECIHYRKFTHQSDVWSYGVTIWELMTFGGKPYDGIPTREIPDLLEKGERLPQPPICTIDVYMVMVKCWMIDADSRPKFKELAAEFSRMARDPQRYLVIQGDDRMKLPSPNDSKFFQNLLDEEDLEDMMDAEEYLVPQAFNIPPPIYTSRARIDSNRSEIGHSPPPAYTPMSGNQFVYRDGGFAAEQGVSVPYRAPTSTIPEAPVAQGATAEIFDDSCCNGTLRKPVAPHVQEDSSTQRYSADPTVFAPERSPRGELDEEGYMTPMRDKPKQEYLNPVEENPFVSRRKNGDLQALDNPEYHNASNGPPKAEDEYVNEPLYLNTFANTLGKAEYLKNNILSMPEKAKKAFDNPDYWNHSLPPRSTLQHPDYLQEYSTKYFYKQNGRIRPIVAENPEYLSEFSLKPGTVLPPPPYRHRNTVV
# T18 sequence (Q00532 whole entry): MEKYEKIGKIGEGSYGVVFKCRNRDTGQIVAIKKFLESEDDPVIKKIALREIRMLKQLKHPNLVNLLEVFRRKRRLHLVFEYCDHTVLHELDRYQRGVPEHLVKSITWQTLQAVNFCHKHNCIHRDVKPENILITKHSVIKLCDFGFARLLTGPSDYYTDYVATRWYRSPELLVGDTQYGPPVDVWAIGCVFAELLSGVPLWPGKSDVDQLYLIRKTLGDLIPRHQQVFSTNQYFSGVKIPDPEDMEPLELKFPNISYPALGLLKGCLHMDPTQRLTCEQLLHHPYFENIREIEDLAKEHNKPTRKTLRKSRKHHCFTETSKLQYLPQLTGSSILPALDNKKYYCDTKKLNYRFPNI
# T17 sequence (P68400 whole entry): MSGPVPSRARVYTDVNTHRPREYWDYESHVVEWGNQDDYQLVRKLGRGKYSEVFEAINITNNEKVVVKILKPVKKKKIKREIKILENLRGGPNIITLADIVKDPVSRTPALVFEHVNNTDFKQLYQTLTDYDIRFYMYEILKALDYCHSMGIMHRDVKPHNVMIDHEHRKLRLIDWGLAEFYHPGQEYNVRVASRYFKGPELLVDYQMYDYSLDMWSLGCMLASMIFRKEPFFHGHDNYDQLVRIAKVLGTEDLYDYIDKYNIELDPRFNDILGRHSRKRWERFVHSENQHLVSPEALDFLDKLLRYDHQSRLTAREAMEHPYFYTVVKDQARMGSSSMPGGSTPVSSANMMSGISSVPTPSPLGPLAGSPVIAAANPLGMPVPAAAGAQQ
# T13 sequence (P61075 whole entry): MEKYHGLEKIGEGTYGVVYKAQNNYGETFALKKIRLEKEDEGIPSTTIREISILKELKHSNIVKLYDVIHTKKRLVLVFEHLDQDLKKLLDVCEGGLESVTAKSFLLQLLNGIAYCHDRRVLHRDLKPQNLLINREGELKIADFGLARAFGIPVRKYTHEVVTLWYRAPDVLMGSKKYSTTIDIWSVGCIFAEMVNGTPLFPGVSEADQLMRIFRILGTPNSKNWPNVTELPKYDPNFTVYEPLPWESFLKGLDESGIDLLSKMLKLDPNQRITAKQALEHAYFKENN
structure (smiles),measurement,setting,value
"Cc1ccc(C2=Nc3cccnc3S(=O)(=O)c3ccccc32)cc1 [TBPT, 6-(p-tolyl)benzo[f] pyrido[2,3-b][1,4] thiazepine 11,11-dioxide]",remaining binding at 5 µM,[1]; 5 μM,95%
same,remaining binding at 10 µM,[1]; 10 μM,100%
same,remaining binding at 5 µM,[2]; 5 μM,100%
same,remaining binding at 10 µM,[2]; 10 μM,100%
same,remaining binding at 5 µM,[3]; 5 μM,100%
same,remaining binding at 10 µM,[3]; 10 μM,100%
same,remaining binding at 5 µM,[4]; 5 μM,100%
same,remaining binding at 10 µM,[4]; 10 μM,90%
same,remaining binding at 5 µM,[5]; 5 μM,100%
same,remaining binding at 10 µM,[5]; 10 μM,74%
same,remaining binding at 5 µM,[6]; 5 μM,100%
same,remaining binding at 10 µM,[6]; 10 μM,100%
same,remaining binding at 5 µM,[7]; 5 μM,86%
same,remaining binding at 10 µM,[7]; 10 μM,99%
same,remaining binding at 5 µM,[8]; 5 μM,63%
same,remaining binding at 10 µM,[8]; 10 μM,100%
same,remaining binding at 5 µM,[9]; 5 μM,100%
same,remaining binding at 10 µM,[9]; 10 μM,93%
same,remaining binding at 5 µM,[10]; 5 μM,100%
same,remaining binding at 10 µM,[10]; 10 μM,85%
same,remaining binding at 5 µM,[11]; 5 μM,91%
same,remaining binding at 10 µM,[11]; 10 μM,100%
same,remaining binding at 5 µM,[12]; 5 μM,98%
same,remaining binding at 10 µM,[12]; 10 μM,92%
same,remaining binding at 5 µM,[13]; 5 μM,97%
same,remaining binding at 10 µM,[13]; 10 μM,97%
same,remaining binding at 5 µM,[14]; 5 μM,100%
same,remaining binding at 10 µM,[14]; 10 μM,93%
same,remaining binding at 5 µM,[15]; 5 μM,85%
same,remaining binding at 10 µM,[15]; 10 μM,98%
same,remaining binding at 5 µM,[16]; 5 μM,71%
same,remaining binding at 10 µM,[16]; 10 μM,63%
same,remaining binding at 5 µM,[17]; 5 μM,100%
same,remaining binding at 10 µM,[17]; 10 μM,84%
same,remaining binding at 5 µM,[18]; 5 μM,94%
same,remaining binding at 10 µM,[18]; 10 μM,88%
same,remaining binding at 5 µM,[19]; 5 μM,100%
same,remaining binding at 10 µM,[19]; 10 μM,100%
same,remaining binding at 5 µM,[20]; 5 μM,100%
same,remaining binding at 10 µM,[20]; 10 μM,100%
same,remaining binding at 5 µM,[21]; 5 μM,96%
same,remaining binding at 10 µM,[21]; 10 μM,100%
same,remaining binding at 5 µM,[22]; 5 μM,94%
same,remaining binding at 10 µM,[22]; 10 μM,100%
same,remaining binding at 5 µM,[23]; 5 μM,85%
same,remaining binding at 10 µM,[23]; 10 μM,100%
same,remaining binding at 5 µM,[24]; 5 μM,93%
same,remaining binding at 10 µM,[24]; 10 μM,99%
same,remaining binding at 5 µM,[25]; 5 μM,100%
same,remaining binding at 10 µM,[25]; 10 μM,85%
same,remaining binding at 5 µM,[26]; 5 μM,100%
same,remaining binding at 10 µM,[26]; 10 μM,100%
same,remaining binding at 5 µM,[27]; 5 μM,92%
same,remaining binding at 10 µM,[27]; 10 μM,70%
same,remaining binding at 5 µM,[28]; 5 μM,81%
same,remaining binding at 10 µM,[28]; 10 μM,91%
same,remaining binding at 5 µM,[29]; 5 μM,100%
same,remaining binding at 10 µM,[29]; 10 μM,88%
same,remaining binding at 5 µM,[30]; 5 μM,80%
same,remaining binding at 10 µM,[30]; 10 μM,100%
